In patent publication US7118895B2, “Process for producing aglycon by using diglycosidase and flavor-improved food containing the aglycon and converting agent to be used in the process” (Amano Enzyme Inc., priority 2000, dated 2006):

System: Crude diglycosidase
Assay: Examination of pH in the conversion into isoflavone aglycons by diglycosidase using soybean materials
Assay type: biochemical, Penicillium multicolor IAM7153
Design: Decomposition efficiency of genistin family in soymilk / Decomposition efficiency of genistin family in defatted soybean / Decomposition efficiency of daidzin family in defatted soybean: concentration or dose not given beside the values
Conditions: for Decomposition efficiency of daidzin family in roasted soy flour: 55° C.
Outline: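 Conversion of glycosides to isoflavone aglycons was followed by HPLC after crude diglycosidase (1.88 AU/mL enzyme solution) acted at 55° C for up to 6 h on four soy materials, 50 mg each, held at pH 2–11.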

[1] = pH4.8, heat treatment of enzyme: no, reaction time 0 h
[2] = pH4.8, heat treatment of enzyme: no, reaction time 1 h
[3] = pH4.8, heat treatment of enzyme: no, reaction time 3 h
[4] = pH4.8, heat treatment of enzyme: no, reaction time 6 h
[5] = pH4.8, heat treatment of enzyme: yes, reaction time 6 h
[6] = pH6.6, heat treatment of enzyme: no, reaction time 0 h
[7] = pH6.6, heat treatment of enzyme: no, reaction time 1 h
[8] = pH6.6, heat treatment of enzyme: no, reaction time 3 h
[9] = pH6.6, heat treatment of enzyme: no, reaction time 6 h
[10] = pH6.6, heat treatment of enzyme: yes, reaction time 6 h

SMILES: O=c1c(-c2ccc(O)cc2)coc2cc(O[C@@H]3O[C@H](CO)[C@@H](O)[C@H](O)[C@H]3O)ccc12 [daidzin]
- Decomposition efficiency of daidzin family in concentrated soybean protein (pH1.6, heat treatment of enzyme: no, reaction time 0 h): 52.5%
- Decomposition efficiency of daidzin family in concentrated soybean protein (pH1.6, heat treatment of enzyme: no, reaction time 1 h): 53.0%
- Decomposition efficiency of daidzin family in concentrated soybean protein (pH1.6, heat treatment of enzyme: no, reaction time 3 h): 55.0%
- Decomposition efficiency of daidzin family in concentrated soybean protein (pH1.6, heat treatment of enzyme: no, reaction time 6 h): 57.2%
- Decomposition efficiency of daidzin family in concentrated soybean protein (pH1.6, heat treatment of enzyme: yes, reaction time 6 h): 59.0%
- Decomposition efficiency of daidzin family in roasted soy flour (pH2, heat treatment of enzyme no, reaction time 0 h): 49.1
- Decomposition efficiency of daidzin family in roasted soy flour (pH2, heat treatment of enzyme no, reaction time 1 h): 47.6
- Decomposition efficiency of daidzin family in roasted soy flour (pH2, heat treatment of enzyme no, reaction time 3 h): 50.3
- Decomposition efficiency of daidzin family in roasted soy flour (pH2, heat treatment of enzyme no, reaction time 6 h): 53.1
- Decomposition efficiency of daidzin family in roasted soy flour (pH2, heat treatment of enzyme yes, reaction time 6 h): 53.8
- Decomposition efficiency of daidzin family in soymilk (pH2.3, heat treatment of enzyme: no, reaction time 0 h): 34.4%
- Decomposition efficiency of daidzin family in soymilk (pH2.3, heat treatment of enzyme: no, reaction time 1 h): not detected
- Decomposition efficiency of daidzin family in soymilk (pH2.3, heat treatment of enzyme: no, reaction time 3 h): not detected
- Decomposition efficiency of daidzin family in soymilk (pH2.3, heat treatment of enzyme: no, reaction time 6 h): not detected
- Decomposition efficiency of daidzin family in soymilk (pH2.3, heat treatment of enzyme: yes, reaction time 6 h): 38.8%
- Decomposition efficiency of daidzin family in defatted soybean (pH2.6, heat treatment of enzyme: no, reaction time 0 h): 45.8%
- Decomposition efficiency of daidzin family in defatted soybean (pH2.6, heat treatment of enzyme: no, reaction time 1 h): 37.5%
- Decomposition efficiency of daidzin family in defatted soybean (pH2.6, heat treatment of enzyme: no, reaction time 3 h): 17.3%
- Decomposition efficiency of daidzin family in defatted soybean (pH2.6, heat treatment of enzyme: no, reaction time 6 h): 16.9%
- Decomposition efficiency of daidzin family in defatted soybean (pH2.6, heat treatment of enzyme: yes, reaction time 6 h): 48.0%
- Decomposition efficiency of daidzin family in concentrated soybean protein (pH2.7, heat treatment of enzyme: no, reaction time 0 h): 52.5%
- Decomposition efficiency of daidzin family in concentrated soybean protein (pH2.7, heat treatment of enzyme: no, reaction time 1 h): 12.9%
- Decomposition efficiency of daidzin family in concentrated soybean protein (pH2.7, heat treatment of enzyme: no, reaction time 3 h): 12.5%
- Decomposition efficiency of daidzin family in concentrated soybean protein (pH2.7, heat treatment of enzyme: no, reaction time 6 h): 9.3%
- Decomposition efficiency of daidzin family in concentrated soybean protein (pH2.7, heat treatment of enzyme: yes, reaction time 6 h): 53.0%
- Decomposition efficiency of daidzin family in roasted soy flour (pH3, heat treatment of enzyme no, reaction time 0 h): 49.1
- Decomposition efficiency of daidzin family in roasted soy flour (pH3, heat treatment of enzyme no, reaction time 1 h): not detected
- Decomposition efficiency of daidzin family in roasted soy flour (pH3, heat treatment of enzyme no, reaction time 3 h): not detected
- Decomposition efficiency of daidzin family in roasted soy flour (pH3, heat treatment of enzyme no, reaction time 6 h): not detected
- Decomposition efficiency of daidzin family in roasted soy flour (pH3, heat treatment of enzyme yes, reaction time 6 h): 49.0
- Decomposition efficiency of daidzin family in defatted soybean (pH3.4, heat treatment of enzyme: no, reaction time 0 h): 45.8%
- Decomposition efficiency of daidzin family in defatted soybean (pH3.4, heat treatment of enzyme: no, reaction time 1 h): not detected
- Decomposition efficiency of daidzin family in defatted soybean (pH3.4, heat treatment of enzyme: no, reaction time 3 h): not detected
- Decomposition efficiency of daidzin family in defatted soybean (pH3.4, heat treatment of enzyme: no, reaction time 6 h): not detected
- Decomposition efficiency of daidzin family in defatted soybean (pH3.4, heat treatment of enzyme: yes, reaction time 6 h): 47.8%
- Decomposition efficiency of daidzin family in soymilk (pH3.5, heat treatment of enzyme: no, reaction time 0 h): 34.4%
- Decomposition efficiency of daidzin family in soymilk (pH3.5, heat treatment of enzyme: no, reaction time 1 h): not detected
- Decomposition efficiency of daidzin family in soymilk (pH3.5, heat treatment of enzyme: no, reaction time 3 h): not detected
- Decomposition efficiency of daidzin family in soymilk (pH3.5, heat treatment of enzyme: no, reaction time 6 h): not detected
- Decomposition efficiency of daidzin family in soymilk (pH3.5, heat treatment of enzyme: yes, reaction time 6 h): 40.4%
- Decomposition efficiency of daidzin family in concentrated soybean protein (pH3.7, heat treatment of enzyme: no, reaction time 0 h): 52.5%
- Decomposition efficiency of daidzin family in concentrated soybean protein (pH3.7, heat treatment of enzyme: no, reaction time 1 h): not detected
- Decomposition efficiency of daidzin family in concentrated soybean protein (pH3.7, heat treatment of enzyme: no, reaction time 3 h): not detected
- Decomposition efficiency of daidzin family in concentrated soybean protein (pH3.7, heat treatment of enzyme: no, reaction time 6 h): not detected
- Decomposition efficiency of daidzin family in concentrated soybean protein (pH3.7, heat treatment of enzyme: yes, reaction time 6 h): 52.5%
- Decomposition efficiency of daidzin family in roasted soy flour (pH4, heat treatment of enzyme no, reaction time 0 h): 48.7
- Decomposition efficiency of daidzin family in roasted soy flour (pH4, heat treatment of enzyme no, reaction time 1 h): not detected
- Decomposition efficiency of daidzin family in roasted soy flour (pH4, heat treatment of enzyme no, reaction time 3 h): not detected
- Decomposition efficiency of daidzin family in roasted soy flour (pH4, heat treatment of enzyme no, reaction time 6 h): not detected
- Decomposition efficiency of daidzin family in roasted soy flour (pH4, heat treatment of enzyme yes, reaction time 6 h): 48.6
- Decomposition efficiency of daidzin family in defatted soybean [1]: 43.5%
- Decomposition efficiency of daidzin family in soymilk [1]: 34.9%
- Decomposition efficiency of daidzin family in defatted soybean [2]: not detected
- Decomposition efficiency of daidzin family in soymilk [2]: not detected
- Decomposition efficiency of daidzin family in defatted soybean [3]: not detected
- Decomposition efficiency of daidzin family in soymilk [3]: not detected
- Decomposition efficiency of daidzin family in defatted soybean [4]: not detected
- Decomposition efficiency of daidzin family in soymilk [4]: not detected
- Decomposition efficiency of daidzin family in defatted soybean [5]: 37.1%
- Decomposition efficiency of daidzin family in soymilk [5]: 41.2%
- Decomposition efficiency of daidzin family in roasted soy flour (pH5, heat treatment of enzyme no, reaction time 0 h): 48.7
- Decomposition efficiency of daidzin family in roasted soy flour (pH5, heat treatment of enzyme no, reaction time 1 h): not detected
- Decomposition efficiency of daidzin family in roasted soy flour (pH5, heat treatment of enzyme no, reaction time 3 h): not detected
- Decomposition efficiency of daidzin family in roasted soy flour (pH5, heat treatment of enzyme no, reaction time 6 h): not detected
- Decomposition efficiency of daidzin family in roasted soy flour (pH5, heat treatment of enzyme yes, reaction time 6 h): 50.6
- Decomposition efficiency of daidzin family in concentrated soybean protein (pH5.1, heat treatment of enzyme: no, reaction time 0 h): 52.5%
- Decomposition efficiency of daidzin family in concentrated soybean protein (pH5.1, heat treatment of enzyme: no, reaction time 1 h): not detected
- Decomposition efficiency of daidzin family in concentrated soybean protein (pH5.1, heat treatment of enzyme: no, reaction time 3 h): not detected
- Decomposition efficiency of daidzin family in concentrated soybean protein (pH5.1, heat treatment of enzyme: no, reaction time 6 h): not detected
- Decomposition efficiency of daidzin family in concentrated soybean protein (pH5.1, heat treatment of enzyme: yes, reaction time 6 h): 53.4%
- Decomposition efficiency of daidzin family in defatted soybean (pH5.4, heat treatment of enzyme: no, reaction time 0 h): 43.5%
- Decomposition efficiency of daidzin family in defatted soybean (pH5.4, heat treatment of enzyme: no, reaction time 1 h): not detected
- Decomposition efficiency of daidzin family in defatted soybean (pH5.4, heat treatment of enzyme: no, reaction time 3 h): not detected
- Decomposition efficiency of daidzin family in defatted soybean (pH5.4, heat treatment of enzyme: no, reaction time 6 h): not detected
- Decomposition efficiency of daidzin family in defatted soybean (pH5.4, heat treatment of enzyme: yes, reaction time 6 h): not detected
- Decomposition efficiency of daidzin family in soymilk (pH6.2, heat treatment of enzyme: no, reaction time 0 h): 34.9%
- Decomposition efficiency of daidzin family in soymilk (pH6.2, heat treatment of enzyme: no, reaction time 1 h): not detected
- Decomposition efficiency of daidzin family in soymilk (pH6.2, heat treatment of enzyme: no, reaction time 3 h): not detected
- Decomposition efficiency of daidzin family in soymilk (pH6.2, heat treatment of enzyme: no, reaction time 6 h): not detected
- Decomposition efficiency of daidzin family in soymilk (pH6.2, heat treatment of enzyme: yes, reaction time 6 h): 40.6%
- Decomposition efficiency of daidzin family in roasted soy flour (pH6.5, heat treatment of enzyme no, reaction time 0 h): 48.4
- Decomposition efficiency of daidzin family in roasted soy flour (pH6.5, heat treatment of enzyme no, reaction time 1 h): not detected
- Decomposition efficiency of daidzin family in roasted soy flour (pH6.5, heat treatment of enzyme no, reaction time 3 h): not detected
- Decomposition efficiency of daidzin family in roasted soy flour (pH6.5, heat treatment of enzyme no, reaction time 6 h): not detected
- Decomposition efficiency of daidzin family in roasted soy flour (pH6.5, heat treatment of enzyme yes, reaction time 6 h): 51.9
- Decomposition efficiency of daidzin family in concentrated soybean protein [6]: 52.1%
- Decomposition efficiency of daidzin family in defatted soybean [6]: 43.6%
- Decomposition efficiency of daidzin family in concentrated soybean protein [7]: 5.0%
- Decomposition efficiency of daidzin family in defatted soybean [7]: not detected
- Decomposition efficiency of daidzin family in concentrated soybean protein [8]: not detected
- Decomposition efficiency of daidzin family in defatted soybean [8]: not detected
- Decomposition efficiency of daidzin family in concentrated soybean protein [9]: not detected
- Decomposition efficiency of daidzin family in defatted soybean [9]: not detected
- Decomposition efficiency of daidzin family in concentrated soybean protein [10]: 55.1%
- Decomposition efficiency of daidzin family in defatted soybean [10]: 9.3%
- Decomposition efficiency of daidzin family in soymilk (pH7.2, heat treatment of enzyme: no, reaction time 0 h): 34.9%
- Decomposition efficiency of daidzin family in soymilk (pH7.2, heat treatment of enzyme: no, reaction time 1 h): not detected
- Decomposition efficiency of daidzin family in soymilk (pH7.2, heat treatment of enzyme: no, reaction time 3 h): not detected
- Decomposition efficiency of daidzin family in soymilk (pH7.2, heat treatment of enzyme: no, reaction time 6 h): not detected
- Decomposition efficiency of daidzin family in soymilk (pH7.2, heat treatment of enzyme: yes, reaction time 6 h): 41.5%
- Decomposition efficiency of daidzin family in defatted soybean (pH7.8, heat treatment of enzyme: no, reaction time 0 h): 44.7%
- Decomposition efficiency of daidzin family in defatted soybean (pH7.8, heat treatment of enzyme: no, reaction time 1 h): 13.3%
- Decomposition efficiency of daidzin family in defatted soybean (pH7.8, heat treatment of enzyme: no, reaction time 3 h): 10.1%
- Decomposition efficiency of daidzin family in defatted soybean (pH7.8, heat treatment of enzyme: no, reaction time 6 h): 9.4%
- Decomposition efficiency of daidzin family in defatted soybean (pH7.8, heat treatment of enzyme: yes, reaction time 6 h): 41.6%
- Decomposition efficiency of daidzin family in roasted soy flour (pH8.5, heat treatment of enzyme no, reaction time 0 h): 54.1
- Decomposition efficiency of daidzin family in roasted soy flour (pH8.5, heat treatment of enzyme no, reaction time 1 h): 20.4
- Decomposition efficiency of daidzin family in roasted soy flour (pH8.5, heat treatment of enzyme no, reaction time 3 h): 13.3
- Decomposition efficiency of daidzin family in roasted soy flour (pH8.5, heat treatment of enzyme no, reaction time 6 h): 10.2
- Decomposition efficiency of daidzin family in roasted soy flour (pH8.5, heat treatment of enzyme yes, reaction time 6 h): 58.8
- Decomposition efficiency of daidzin family in concentrated soybean protein (pH8.6, heat treatment of enzyme: no, reaction time 0 h): 56.1%
- Decomposition efficiency of daidzin family in concentrated soybean protein (pH8.6, heat treatment of enzyme: no, reaction time 1 h): 50.8%
- Decomposition efficiency of daidzin family in concentrated soybean protein (pH8.6, heat treatment of enzyme: no, reaction time 3 h): 45.0%
- Decomposition efficiency of daidzin family in concentrated soybean protein (pH8.6, heat treatment of enzyme: no, reaction time 6 h): 34.5%
- Decomposition efficiency of daidzin family in concentrated soybean protein (pH8.6, heat treatment of enzyme: yes, reaction time 6 h): 59.1%
- Decomposition efficiency of daidzin family in soymilk (pH11.6, heat treatment of enzyme: no, reaction time 0 h): 38.8%
- Decomposition efficiency of daidzin family in soymilk (pH11.6, heat treatment of enzyme: no, reaction time 1 h): not detected
- Decomposition efficiency of daidzin family in soymilk (pH11.6, heat treatment of enzyme: no, reaction time 3 h): not detected
- Decomposition efficiency of daidzin family in soymilk (pH11.6, heat treatment of enzyme: no, reaction time 6 h): not detected
- Decomposition efficiency of daidzin family in soymilk (pH11.6, heat treatment of enzyme: yes, reaction time 6 h): 44.6%
